Assay results published in ChEMBL document CHEMBL3045319, “Synthesis, antitumor activity, and structureactivity relationship of some 4H-pyrano[3,2-h]quinoline and 7H-pyrimido[4,5:6,5]pyrano[3,2-h]quinoline derivatives” (Med Chem Res, 2013).
In brackets after ≈: the same amount, converted by molar mass.

test system: HepG2; assay: Cytotoxicity against Homo sapiens (human) HepG2 cells after 48 hr by MTT assay; format: functional, cell-based; conditions: Homo sapiens, HepG2, 48 h; read-out: IC50

Compared with `N#CC1=C(/N=C/NN)Oc2c(ccc3cccnc23)C1c1ccc(Cl)cc1` (configuration not stated), `Cc1ccc2ccc3c(c2n1)OC(N)=C(C#N)C3c1ccc(Cl)cc1` (configuration not stated) is 4.8-fold lower in IC50: 8.7 mg/L (≈ 23.1 µM) for the first, 1.8 mg/L (≈ 5.18 µM) for the second.

test system: HepG2; assay: Cytotoxicity against Homo sapiens (human) HepG2 cells assessed as cell viability at 1.56 ug/ml after 48 hr by MTT assay relative to control; format: functional; conditions: HepG2, 48 h, read-out: Activity

Going from `N#CC1=C(/N=C/NN)Oc2c(ccc3cccnc23)C1c1ccc(Cl)cc1` (configuration not stated) to `Cc1ccc2ccc3c(c2n1)OC(N)=C(C#N)C3c1ccc(Cl)cc1` (configuration not stated), the viability at 1.56 µg/mL falls from 88.2% to 51.9%.

test system: HepG2; assay: Cytotoxicity against Homo sapiens (human) HepG2 cells assessed as cell viability at 3.125 ug/ml after 48 hr by MTT assay relative to control; format: functional; conditions: HepG2, 48 h, read-out: Activity

Going from `N#CC1=C(/N=C/NN)Oc2c(ccc3cccnc23)C1c1ccc(Cl)cc1` (configuration not stated) to `Cc1ccc2ccc3c(c2n1)OC(N)=C(C#N)C3c1ccc(Cl)cc1` (configuration not stated), the viability at 3.125 µg/mL falls from 78.4% to 43%.

test system: HepG2; assay: Cytotoxicity against Homo sapiens (human) HepG2 cells assessed as cell viability at 6.25 ug/ml after 48 hr by MTT assay relative to control; format: functional; conditions: HepG2, 48 h, read-out: Activity

Going from `N#CC1=C(/N=C/NN)Oc2c(ccc3cccnc23)C1c1ccc(Cl)cc1` (configuration not stated) to `Cc1ccc2ccc3c(c2n1)OC(N)=C(C#N)C3c1ccc(Cl)cc1` (configuration not stated), the viability at 6.25 µg/mL falls from 60.9% to 37.6%.

test system: HepG2; assay: Cytotoxicity against Homo sapiens (human) HepG2 cells assessed as cell viability at 12.5 ug/ml after 48 hr by MTT assay relative to control; format: functional; conditions: HepG2, 48 h, read-out: Activity

Going from `N#CC1=C(/N=C/NN)Oc2c(ccc3cccnc23)C1c1ccc(Cl)cc1` (configuration not stated) to `Cc1ccc2ccc3c(c2n1)OC(N)=C(C#N)C3c1ccc(Cl)cc1` (configuration not stated), the viability at 12.5 µg/mL falls from 36% to 35.6%.

test system: HepG2; assay: Cytotoxicity against Homo sapiens (human) HepG2 cells assessed as cell viability at 25 ug/ml after 48 hr by MTT assay relative to control; format: functional; conditions: HepG2, 48 h, read-out: Activity

Going from `N#CC1=C(/N=C/NN)Oc2c(ccc3cccnc23)C1c1ccc(Cl)cc1` (configuration not stated) to `Cc1ccc2ccc3c(c2n1)OC(N)=C(C#N)C3c1ccc(Cl)cc1` (configuration not stated), the viability at 25 µg/mL rises from 29.1% to 33.7%.

test system: HepG2; assay: Cytotoxicity against Homo sapiens (human) HepG2 cells assessed as cell viability at 50 ug/ml after 48 hr by MTT assay relative to control; format: functional; conditions: HepG2, 48 h, read-out: Activity

Going from `N#CC1=C(/N=C/NN)Oc2c(ccc3cccnc23)C1c1ccc(Cl)cc1` (configuration not stated) to `Cc1ccc2ccc3c(c2n1)OC(N)=C(C#N)C3c1ccc(Cl)cc1` (configuration not stated), the viability at 50 µg/mL falls from 24.9% to 23.1%.

test system: not listed separately; assay: Cytotoxicity against Homo sapiens (human) HCT cells after 48 hr by MTT assay; format: functional, cell-based; conditions: not given

First: N#CC1=C(/N=C/NN)Oc2c(ccc3cccnc23)C1c1ccc(Cl)cc1 (configuration not stated)
Second: Cc1ccc2ccc3c(c2n1)OC(N)=C(C#N)C3c1ccc(Cl)cc1 (configuration not stated)
The IC50 of the first is 2.1-fold lower: 7.4 mg/L (≈ 19.7 µM) for the first, 15.8 mg/L (≈ 45.4 µM) for the second.

test system: not listed separately; assay: Cytotoxicity against Homo sapiens (human) HCT cells assessed as cell viability at 1.56 ug/ml after 48 hr by MTT assay relative to control; format: functional; conditions: read-out: Activity

Compared with `N#CC1=C(/N=C/NN)Oc2c(ccc3cccnc23)C1c1ccc(Cl)cc1` (configuration not stated), `Cc1ccc2ccc3c(c2n1)OC(N)=C(C#N)C3c1ccc(Cl)cc1` (configuration not stated) is higher in viability at 1.56 µg/mL: 81.4% for the first, 94% for the second.

test system: not listed separately; assay: Cytotoxicity against Homo sapiens (human) HCT cells assessed as cell viability at 6.25 ug/ml after 48 hr by MTT assay relative to control; format: functional; conditions: read-out: Activity

Compared with `N#CC1=C(/N=C/NN)Oc2c(ccc3cccnc23)C1c1ccc(Cl)cc1` (configuration not stated), `Cc1ccc2ccc3c(c2n1)OC(N)=C(C#N)C3c1ccc(Cl)cc1` (configuration not stated) is higher in viability at 6.25 µg/mL: 55.6% for the first, 66.8% for the second.

test system: MCF7; assay: Cytotoxicity against Homo sapiens (human) MCF7 cells assessed as cell viability at 1.56 ug/ml after 48 hr by MTT assay relative to control; format: functional; conditions: MCF7, 48 h, read-out: Activity

Going from `N#CC1=C(/N=C/NN)Oc2c(ccc3cccnc23)C1c1ccc(Cl)cc1` (configuration not stated) to `Cc1ccc2ccc3c(c2n1)OC(N)=C(C#N)C3c1ccc(Cl)cc1` (configuration not stated), the viability at 1.56 µg/mL rises from 78.8% to 100%.

test system: MCF7; assay: Cytotoxicity against Homo sapiens (human) MCF7 cells assessed as cell viability at 3.125 ug/ml after 48 hr by MTT assay relative to control; format: functional; conditions: MCF7, 48 h, read-out: Activity

Compared with `N#CC1=C(/N=C/NN)Oc2c(ccc3cccnc23)C1c1ccc(Cl)cc1` (configuration not stated), `Cc1ccc2ccc3c(c2n1)OC(N)=C(C#N)C3c1ccc(Cl)cc1` (configuration not stated) is higher in viability at 3.125 µg/mL: 67% for the first, 87% for the second.

test system: MCF7; assay: Cytotoxicity against Homo sapiens (human) MCF7 cells assessed as cell viability at 12.5 ug/ml after 48 hr by MTT assay relative to control; format: functional; conditions: MCF7, 48 h, read-out: Activity

Compared with `N#CC1=C(/N=C/NN)Oc2c(ccc3cccnc23)C1c1ccc(Cl)cc1` (configuration not stated), `Cc1ccc2ccc3c(c2n1)OC(N)=C(C#N)C3c1ccc(Cl)cc1` (configuration not stated) is higher in viability at 12.5 µg/mL: 45% for the first, 71.4% for the second.

test system: MCF7; assay: Cytotoxicity against Homo sapiens (human) MCF7 cells assessed as cell viability at 6.25 ug/ml after 48 hr by MTT assay relative to control; format: functional; conditions: MCF7, 48 h, read-out: Activity

Compared with `N#CC1=C(/N=C/NN)Oc2c(ccc3cccnc23)C1c1ccc(Cl)cc1` (configuration not stated), `Cc1ccc2ccc3c(c2n1)OC(N)=C(C#N)C3c1ccc(Cl)cc1` (configuration not stated) is higher in viability at 6.25 µg/mL: 55% for the first, 78.2% for the second.

test system: MCF7; assay: Cytotoxicity against Homo sapiens (human) MCF7 cells assessed as cell viability at 50 ug/ml after 48 hr by MTT assay relative to control; format: functional; conditions: MCF7, 48 h, read-out: Activity

Going from `N#CC1=C(/N=C/NN)Oc2c(ccc3cccnc23)C1c1ccc(Cl)cc1` (configuration not stated) to `Cc1ccc2ccc3c(c2n1)OC(N)=C(C#N)C3c1ccc(Cl)cc1` (configuration not stated), the viability at 50 µg/mL rises from 21.4% to 28%.

test system: MCF7; assay: Cytotoxicity against Homo sapiens (human) MCF7 cells assessed as cell viability at 25 ug/ml after 48 hr by MTT assay relative to control; format: functional; conditions: MCF7, 48 h, read-out: Activity

Going from `N#CC1=C(/N=C/NN)Oc2c(ccc3cccnc23)C1c1ccc(Cl)cc1` (configuration not stated) to `Cc1ccc2ccc3c(c2n1)OC(N)=C(C#N)C3c1ccc(Cl)cc1` (configuration not stated), the viability at 25 µg/mL rises from 35.2% to 58.2%.

test system: not listed separately; assay: Cytotoxicity against Homo sapiens (human) HCT cells assessed as cell viability at 3.125 ug/ml after 48 hr by MTT assay relative to control; format: functional; conditions: read-out: Activity

Compared with `N#CC1=C(/N=C/NN)Oc2c(ccc3cccnc23)C1c1ccc(Cl)cc1` (configuration not stated), `Cc1ccc2ccc3c(c2n1)OC(N)=C(C#N)C3c1ccc(Cl)cc1` (configuration not stated) is higher in viability at 3.125 µg/mL: 65.2% for the first, 79% for the second.

test system: not listed separately; assay: Cytotoxicity against Homo sapiens (human) HCT cells assessed as cell viability at 12.5 ug/ml after 48 hr by MTT assay relative to control; format: functional; conditions: read-out: Activity

Compared with `N#CC1=C(/N=C/NN)Oc2c(ccc3cccnc23)C1c1ccc(Cl)cc1` (configuration not stated), `Cc1ccc2ccc3c(c2n1)OC(N)=C(C#N)C3c1ccc(Cl)cc1` (configuration not stated) is higher in viability at 12.5 µg/mL: 36% for the first, 55.6% for the second.

test system: not listed separately; assay: Cytotoxicity against Homo sapiens (human) HCT cells assessed as cell viability at 25 ug/ml after 48 hr by MTT assay relative to control; format: functional; conditions: read-out: Activity

First: N#CC1=C(/N=C/NN)Oc2c(ccc3cccnc23)C1c1ccc(Cl)cc1 (configuration not stated)
Second: Cc1ccc2ccc3c(c2n1)OC(N)=C(C#N)C3c1ccc(Cl)cc1 (configuration not stated)
The viability at 25 µg/mL of the first is lower: 29.2% for the first, 35.8% for the second.

test system: not listed separately; assay: Cytotoxicity against Homo sapiens (human) HCT cells assessed as cell viability at 50 ug/ml after 48 hr by MTT assay relative to control; format: functional; conditions: read-out: Activity

Going from `N#CC1=C(/N=C/NN)Oc2c(ccc3cccnc23)C1c1ccc(Cl)cc1` (configuration not stated) to `Cc1ccc2ccc3c(c2n1)OC(N)=C(C#N)C3c1ccc(Cl)cc1` (configuration not stated), the viability at 50 µg/mL rises from 24.8% to 27.6%.

test system: MCF7; assay: Cytotoxicity against Homo sapiens (human) MCF7 cells after 48 hr by MTT assay; format: functional, cell-based; conditions: MCF7, 48 h

Going from `N#CC1=C(/N=C/NN)Oc2c(ccc3cccnc23)C1c1ccc(Cl)cc1` (configuration not stated) to `Cc1ccc2ccc3c(c2n1)OC(N)=C(C#N)C3c1ccc(Cl)cc1` (configuration not stated), the IC50 rises from 8.4 mg/L (≈ 22.4 µM) to 27.9 mg/L (≈ 80.2 µM) (3.3-fold).
